Measured values reported in patent US20220041606A1, “POSITIVE ALLOSTERIC MODULATORS OF THE MUSCARINIC ACETYLCHOLINE RECEPTOR M1” (Vanderbilt University, priority 2020, published 2022).

What was measured:
human mAChR M1 [1] = biological target: T1, human mAChR M1 (Homo sapiens, UniProt P11229); assay: mAChR M1 cell-based functional assay (calcium mobilization), PAM activity: increase in the EC20 acetylcholine response; settings: CHO-K1 cells expressing hM1; potentiation of EC20 acetylcholine response
T1 construct: host or cells: CHO-K1 cells (ATCC), stably transfected using Lipofectamine2000
T1 sequence (P11229 1-460): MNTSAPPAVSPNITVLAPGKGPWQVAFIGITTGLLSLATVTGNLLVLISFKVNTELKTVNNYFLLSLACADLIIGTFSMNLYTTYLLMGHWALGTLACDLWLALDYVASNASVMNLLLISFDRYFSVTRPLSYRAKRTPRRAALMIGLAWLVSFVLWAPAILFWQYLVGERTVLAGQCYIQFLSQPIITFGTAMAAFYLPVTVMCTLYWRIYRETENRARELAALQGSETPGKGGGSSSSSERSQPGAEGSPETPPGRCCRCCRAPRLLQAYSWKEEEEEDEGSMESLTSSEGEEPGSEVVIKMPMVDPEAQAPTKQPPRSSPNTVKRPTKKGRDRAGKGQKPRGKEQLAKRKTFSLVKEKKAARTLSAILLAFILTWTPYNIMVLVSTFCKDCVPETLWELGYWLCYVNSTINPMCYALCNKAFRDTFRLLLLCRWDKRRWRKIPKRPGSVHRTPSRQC
Summary of the method: (§1)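 CHO-K1 cells stably expressing hM1, loaded with Fluo-4 AM; calcium flux read on FDSS 6000. Compound (11-point, 1:3 CRC) added at 4 s, EC20 acetylcholine at 144 s, EC80 at 230 s; agonism from response to compound alone, PAM from increase in EC20 response; Emax relative to acetylcholine maximum, four-parameter fit.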

human mAChR M1 [2] = biological target: T1, human mAChR M1; assay: mAChR M1 cell-based functional assay (calcium mobilization), agonist activity upon compound addition; settings: CHO-K1 cells expressing hM1; for EC50: compound alone, before acetylcholine addition; for Emax: relative to the maximum for acetylcholine
Summary of the method: as §1

EC50 (human mAChR M1 [1]) [µM]	Emax (human mAChR M1 [1]) [%]	EC50 (human mAChR M1 [2]) [µM]	Emax (human mAChR M1 [2]) [%]	SMILES
7.98	54	> 10	< 5	Cn1cc2c(-c3cc(F)c(Cn4cc(C(=O)N[C@H]5CCCC[C@@H]5O)c5sccc5c4=O)c(F)c3)cccc2n1 [Compound D31, 5-(2,6-difluoro-4-(2-methyl-2H-indazol-4-yl)benzyl)-N-((1S,2S)-2-hydroxycyclohexyl)-4-oxo-4,5-dihydrothieno[3,2-c]pyridine-7-carboxamide]
7.73	40	> 10	< 5	Cn1cc2c(-c3cc(F)c(Cn4cc(C(=O)N[C@H]5CCC[C@@H]5O)c5sccc5c4=O)c(F)c3)cccc2n1 [Compound D32, 5-(2,6-difluoro-4-(2-methyl-2H-indazol-4-yl)benzyl)-N-((1S,2S)-2-hydroxycyclopentyl)-4-oxo-4,5-dihydrothieno[3,2-c]pyridine-7-carboxamide]

Further lines, the compound ahead of its results:

SMILES	EC50 (human mAChR M1 [1]) [µM]	Emax (human mAChR M1 [1]) [%]	EC50 (human mAChR M1 [2]) [µM]	Emax (human mAChR M1 [2]) [%]
Cn1cc(-c2ccc(Cn3cc(C(=O)N[C@H]4CCOC[C@@H]4O)c4sccc4c3=O)c(F)c2)cn1 [Compound D29, 5-(2-fluoro-4-(1-methyl-1H-pyrazol-4-yl)benzyl)-N-((3R,4S)-3-hydroxytetrahydro-2H-pyran-4-yl)-4-oxo-4,5-dihydrothieno[3,2-c]pyridine-7-carboxamide]	> 10	37	> 10	< 5
Cn1cc2c(-c3cc(F)c(Cn4cc(C(=O)N[C@H]5CCOC[C@@H]5O)c5sccc5c4=O)c(F)c3)cccc2n1 [Compound D30, 5-(2,6-difluoro-4-(2-methyl-2H-indazol-4-yl)benzyl)-N-((3R,4S)-3-hydroxytetrahydro-2H-pyran-4-yl)-4-oxo-4,5-dihydrothieno[3,2-c]pyridine-7-carboxamide]	4.52	69	> 10	< 5
Cn1cc2c(-c3cc(F)c(Cn4cc(C(=O)N[C@H]5CCCCC[C@@H]5O)c5sccc5c4=O)c(F)c3)cccc2n1 [Compound D33, 5-(2,6-difluoro-4-(2-methyl-2H-indazol-4-yl)benzyl)-N-((1S,2S)-2-hydroxycycloheptyl)-4-oxo-4,5-dihydrothieno[3,2-c]pyridine-7-carboxamide]	5.29	42	> 10	< 5
